Literature values, collected in patent US20150030666A1, “ADHESIVE SKIN PATCH” (KM TRANSDERM LTD., priority 2011, published 2015).

Conditions: in vivo, po

O=C(O[C@H]1CN2CCC1CC2)N1CCc2ccccc2[C@@H]1c1ccccc1 [solifenacin succinate, (3R)-1-azabicyclo[2.2.2]oct-3-yl(1S)-1-phenyl-3,4-dihydroisoquinoline-2(1H)-carboxylate]
half-life in blood: about 50 hr
